Tests used:
[1] = target: T1, native CFTR, genotype F508del/G551D (Homo sapiens, UniProt P13569, G551D); assay: Ussing chamber CFTR-mediated short-circuit current (Isc) in F508del/G551D human bronchial epithelial cells; type: cell-based; conditions: for EC50: F508del/G551D epithelia of hBE cells, Isc, 35°C, read-out: EC50 (μM) (95% CI); for Emax: HBE, read-out: Maximal effect (%) (95% CI)
T1 construct: For functional studies of native CFTR, we used primary cultures of human bronchial epithelial cells; host or cells: primary human bronchial epithelial cells, F508del/G551D, air-liquid interface cultures, studied at 35°C
Source text: For functional studies of native CFTR, we used primary cultures of human bronchial epithelial cells of genotypes F508del/F508del and F508del/G551D. Passage 1 (P1) human bronchial epithelial cells from SH Randell (University of North Carolina [UNC] Cystic Fibrosis Center Tissue Procurement and Cell Culture Core) were differentiated at an air–liquid interface as described by Neuberger et al., ([2011]) with some modifications. The research conducted on human cells at UNC has been verified as compliant with Pfizer policies, including institutional review board or institutional ethics committee approval. Cells were thawed and expanded in BEGM™ Bronchial Epithelial Cell Growth Medium (cat. no. CC‐3170, Lonza, USA) supplemented with retinoic acid (10 nM) and banked at P2. For functional assays, P2 cells were expanded to P4, and 5 × 10^5 P4 human bronchial epithelial cells were seeded in growth medium on Snapwell filter inserts (cat. no. 3801, Corning, NY, USA). Cells were switched to differentiation medium the following day and cultured submerged for 3 days before the medium was removed from the apical membrane to establish an air–liquid interface. Thereafter, the basolateral medium was changed every 2–3 days and mucus washed from the apical membrane every 2–3 weeks and the day prior to use starting 21 days after initiating air–liquid interface culture.
After >30 days of air–liquid interface culture on Snapwell filter inserts, human bronchial epithelial cells formed well differentiated, electrically tight epithelia (Rt > 200 Ω cm^2). Prior to study, F508del/F508del and F508del/G551D human bronchial epithelial cell cultures were incubated at 37°C and 5% CO2.
Epithelia were mounted in Ussing chambers and data acquired and analysed as described above for Ussing chamber studies of FRT cells heterologously expressing CFTR with the following exceptions. Both the apical and basolateral membranes were bathed in solutions containing (mM): 137 NaCl, 4 KCl, 1.8 CaCl2, 1 MgCl2, 10 Na HEPES, and 10 glucose (pH 7.4 with NaOH). Epithelia of F508del/G551D human bronchial epithelial cells were studied at 35°C, whereas those of F508del/F508del human bronchial epithelial cells were assayed at 27°C to maintain the apical membrane expression of F508del‐CFTR. After cancelling voltage offsets, transepithelial voltage was clamped at 0 mV and short‐circuit current (Isc) recorded continuously. The protocol to record CFTR‐mediated Isc was the same as for ICl ^apical measurements except that amiloride (30 μM, apical solution) was added to inhibit the epithelial Na^+ channel before forskolin (10 μM, apical and basolateral solutions) addition.

[2] = target: G551D‐CFTR (Homo sapiens, UniProt P13569, G551D); assay: Ussing chamber apical Cl− current (ICl apical) in FRT epithelia expressing G551D‐CFTR; type: cell-based; set-up: assays at Charles River Laboratories (ChanTest); conditions: for EC50: G551D‐CFTR FRT epithelia, ICl apical, 27°C, read-out: EC50 (μM) (95% CI); for Emax: read-out: Maximal effect (%) (95% CI)
Protocol: Ussing chamber studies to determine the concentration–response relationships of CFTR potentiators (Figure 1c–f) were performed at Charles River Laboratories (ChanTest) (Cleveland, OH, USA). For these studies, FRT cells were stably transfected with CFTR cDNAs with the F508del and G551D variants and the common polymorphism M470 (synthesised by System Biosciences, Palo Alto, CA, USA) using the Flp‐In™ system (Thermo Fisher Scientific, Waltham, MA, USA). The F508del‐CFTR cDNA contained the following differences from the canonical CFTR cDNA sequence (NCBI Accession Number NM_000492): del CTT (1521–1523) to delete F508; synonymous changes T > C (798), A > G (801), T > C (804) to remove a cryptic bacterial promoter; synonymous change T > C (1095); G > A (1408) to give M470 and was amplified using the primers 5′ […] 3′ and 5′ […] 3′. The G551D‐CFTR cDNA contained the following differences from the canonical CFTR cDNA sequence (NCBI Accession Number NM_000492): G > A (1652) to replace G551 with D551; synonymous changes T > C (798), A > G (801), T > C (804) to remove a cryptic bacterial promoter; synonymous change A > C (516); synonymous change T > C (1095); G > A (1408) to give M470 and was amplified using the primers 5′ […] 3′ and 5′ […] 3′. Using Kpn1 and Not1 restriction sites, the F508del‐ and G551D‐CFTR cDNAs were inserted into pcDNA5/FRT (Flp‐In™) (RRID:Addgene_31984). An FRT cell line stably expressing a flippase (Flp)‐recombinase recognition target integration site (generated by Evotec AG, Hamburg, Germany, using isogenic FRT cells from LJV Galietta) was transfected with the F508del‐ and G551D‐CFTR plasmids and the Flp recombinase plasmid pOG44 (RRID:Addgene_129419) following the manufacturer's instructions. To identify FRT cells expressing F508del‐ and G551D‐CFTR, cells were grown under hygromycin selection and individual clones picked, expanded, and verified for CFTR expression. For Ussing chamber studies to determine the plasma membrane stability of F508del‐CFTR, FRT cells expressing F508del‐CFTR from LJV Galietta were cultured and used as described previously (Meng et al., [2017]).
To grow FRT cells as polarised epithelia, 2 × 10^5 FRT cells were seeded on Snapwell filter inserts and cultured for 7–14 days before use; media were changed every 2–3 days. […]
To test the effects of CP‐628006 on CFTR Cl^− channels in the apical membrane of FRT epithelia, we permeabilized the basolateral membrane with amphotericin B (100 μM). After cancelling voltage offsets, we clamped transepithelial voltage at 0 mV and measured apical Cl^− current (ICl ^apical) continuously using a Physiologic Instruments VCC MC6/8 multichannel voltage/current clamp (Li et al., [2004]).

G551D‐CFTR, sequence (P13569 whole entry G551D): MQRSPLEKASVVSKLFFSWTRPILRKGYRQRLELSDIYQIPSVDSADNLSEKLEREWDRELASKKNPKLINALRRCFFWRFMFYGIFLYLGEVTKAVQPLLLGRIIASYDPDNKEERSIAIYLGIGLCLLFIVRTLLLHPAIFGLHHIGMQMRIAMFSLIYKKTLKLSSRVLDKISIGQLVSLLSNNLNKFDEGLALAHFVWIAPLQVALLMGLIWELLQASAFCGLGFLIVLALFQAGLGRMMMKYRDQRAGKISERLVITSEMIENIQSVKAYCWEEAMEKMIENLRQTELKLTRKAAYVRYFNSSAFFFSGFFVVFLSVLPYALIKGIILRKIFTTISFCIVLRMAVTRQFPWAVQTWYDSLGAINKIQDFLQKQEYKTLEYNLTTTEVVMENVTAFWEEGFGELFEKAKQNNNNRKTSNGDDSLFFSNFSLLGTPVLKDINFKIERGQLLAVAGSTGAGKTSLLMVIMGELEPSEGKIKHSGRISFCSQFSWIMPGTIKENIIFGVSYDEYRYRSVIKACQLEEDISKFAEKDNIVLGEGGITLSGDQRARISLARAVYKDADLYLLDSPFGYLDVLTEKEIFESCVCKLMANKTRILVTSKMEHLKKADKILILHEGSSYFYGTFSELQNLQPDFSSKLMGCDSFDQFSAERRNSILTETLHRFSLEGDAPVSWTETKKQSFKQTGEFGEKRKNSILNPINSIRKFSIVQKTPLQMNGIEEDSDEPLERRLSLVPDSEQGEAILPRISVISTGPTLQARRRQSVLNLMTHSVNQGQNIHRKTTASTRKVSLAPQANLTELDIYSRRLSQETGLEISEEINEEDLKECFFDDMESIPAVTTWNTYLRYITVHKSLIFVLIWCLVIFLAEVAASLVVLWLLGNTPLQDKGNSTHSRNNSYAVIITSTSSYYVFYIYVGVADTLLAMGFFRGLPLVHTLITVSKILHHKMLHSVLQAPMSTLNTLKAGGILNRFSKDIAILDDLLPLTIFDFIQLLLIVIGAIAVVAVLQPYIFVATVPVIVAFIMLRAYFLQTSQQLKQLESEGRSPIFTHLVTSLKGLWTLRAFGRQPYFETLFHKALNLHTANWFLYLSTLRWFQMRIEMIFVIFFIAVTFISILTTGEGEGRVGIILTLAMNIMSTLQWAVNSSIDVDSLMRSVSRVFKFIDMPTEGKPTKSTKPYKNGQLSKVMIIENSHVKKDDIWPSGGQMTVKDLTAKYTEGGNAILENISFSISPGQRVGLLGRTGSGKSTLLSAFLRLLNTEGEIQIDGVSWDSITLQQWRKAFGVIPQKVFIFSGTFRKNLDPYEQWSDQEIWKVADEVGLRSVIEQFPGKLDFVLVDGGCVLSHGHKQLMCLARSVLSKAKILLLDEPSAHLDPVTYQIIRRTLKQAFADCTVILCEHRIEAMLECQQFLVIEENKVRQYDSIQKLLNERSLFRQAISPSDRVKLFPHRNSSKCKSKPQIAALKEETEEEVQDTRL
T1 sequence (P13569 whole entry F508del/G551D): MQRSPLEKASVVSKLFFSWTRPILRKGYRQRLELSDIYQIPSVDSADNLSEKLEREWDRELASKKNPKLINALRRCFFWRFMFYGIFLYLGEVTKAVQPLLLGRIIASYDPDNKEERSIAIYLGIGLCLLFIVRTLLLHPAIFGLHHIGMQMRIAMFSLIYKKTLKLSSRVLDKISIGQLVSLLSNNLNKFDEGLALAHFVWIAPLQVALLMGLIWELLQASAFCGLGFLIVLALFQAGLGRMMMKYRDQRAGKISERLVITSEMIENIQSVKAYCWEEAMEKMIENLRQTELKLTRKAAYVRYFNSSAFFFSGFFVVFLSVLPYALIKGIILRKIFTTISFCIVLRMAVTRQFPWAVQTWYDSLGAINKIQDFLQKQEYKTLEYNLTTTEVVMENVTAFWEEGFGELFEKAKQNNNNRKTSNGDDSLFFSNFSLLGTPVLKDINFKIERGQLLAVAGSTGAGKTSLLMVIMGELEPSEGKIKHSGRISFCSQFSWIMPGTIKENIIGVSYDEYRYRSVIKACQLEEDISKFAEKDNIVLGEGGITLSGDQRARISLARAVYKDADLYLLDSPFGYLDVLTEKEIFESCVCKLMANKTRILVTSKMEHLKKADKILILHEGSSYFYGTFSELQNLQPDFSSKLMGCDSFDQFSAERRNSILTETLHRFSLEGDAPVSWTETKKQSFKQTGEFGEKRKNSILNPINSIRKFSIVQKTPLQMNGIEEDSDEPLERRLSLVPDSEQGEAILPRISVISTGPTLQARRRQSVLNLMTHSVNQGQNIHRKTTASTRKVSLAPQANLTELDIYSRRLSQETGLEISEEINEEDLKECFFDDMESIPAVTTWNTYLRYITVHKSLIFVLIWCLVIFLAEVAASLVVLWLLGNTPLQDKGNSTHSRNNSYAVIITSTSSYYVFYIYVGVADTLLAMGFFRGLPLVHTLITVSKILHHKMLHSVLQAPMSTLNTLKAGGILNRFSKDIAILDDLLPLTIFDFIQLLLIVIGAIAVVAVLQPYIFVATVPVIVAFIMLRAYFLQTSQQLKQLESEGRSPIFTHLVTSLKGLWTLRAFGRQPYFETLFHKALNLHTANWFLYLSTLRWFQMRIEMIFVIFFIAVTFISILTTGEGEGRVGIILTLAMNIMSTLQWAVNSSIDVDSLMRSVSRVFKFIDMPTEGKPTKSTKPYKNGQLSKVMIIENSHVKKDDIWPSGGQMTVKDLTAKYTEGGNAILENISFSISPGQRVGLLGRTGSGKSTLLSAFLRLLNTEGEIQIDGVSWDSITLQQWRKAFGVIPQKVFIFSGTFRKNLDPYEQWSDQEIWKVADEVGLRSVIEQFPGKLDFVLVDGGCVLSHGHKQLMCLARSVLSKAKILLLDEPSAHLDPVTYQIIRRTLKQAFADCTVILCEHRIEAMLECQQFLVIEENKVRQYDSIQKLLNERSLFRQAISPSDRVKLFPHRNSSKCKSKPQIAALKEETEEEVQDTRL

SMILES	EC50 [1] [µM]	Emax [1] [%]	EC50 [2] [µM]	Emax [2] [%]
CC(C)(C)c1cc(C(C)(C)C)c(NC(=O)c2c[nH]c3ccccc3c2=O)cc1O [ivacaftor, reference compound]	0.005	103	0.003	97
Cc1ncccc1CNC(=O)c1ccc2c(c1)CC[C@H]1C[C@](O)(CCC(F)(F)F)CC[C@]21Cc1ccccc1 (racemic) [CP‐628006, rac‐(4bR,7R,8aS)‐4b‐benzyl‐7‐hydroxy‐N‐((2‐methylpyridin‐3‐yl)methyl)‐7‐(3,3,3‐trifluoropropyl)‐4b,5,6,7,8,8a,9,10‐octahydrophenanthrene‐2‐carboxamide]	0.14	18	1.68	39
